Experimental data from ChEMBL document CHEMBL3885861, “Open TG-GATES”.

Species on record: Rattus norvegicus
Test: Open TG-GATES - Regimen: Daily Repeat
Format: toxicity, organism-based, Sprague-Dawley
Design: regimen Daily Repeat, gender Male, age 6 weeks
Conditions: in vivo, po, route gavage; for APTT / Bas / Eos / Hb / Ht / Lym / MCH / MCHC / MCV / Mono / PT / Plat / RBC / Ret / WBC / Neu: tissue Blood; for KIDNEY_L / KIDNEY_R / KIDNEY_TOTAL: tissue Kidney; for LIVER: tissue Liver; for ALT / AST / BUN / CRE / Ca / DBIL / GLC / IP / K / LDH / Na / PL / RALB / TBIL / TC / TP / gamma-GTP / TG / ALP: tissue Plasma
[1] = 0 mg/kg, 72 h, dose level Control, time 3 day
[2] = 0 mg/kg, […], dose level Control, time 7 day
[3] = 0 mg/kg, […], dose level Control, time 14 day
[4] = 0 mg/kg, […], dose level Control, time 28 day
[5] = 100 mg/kg, 72 h, dose level Low, time 3 day
[6] = 100 mg/kg, […], dose level Low, time 7 day
[7] = 100 mg/kg, […], dose level Low, time 14 day
[8] = 100 mg/kg, […], dose level Low, time 28 day
[9] = 300 mg/kg, 72 h, dose level Middle, time 3 day

C[C@H](CS)C(=O)N1CCC[C@H]1C(=O)O [CAPTOPRIL]
TERMINAL_BW [1]: 245.5 g | APTT [1]: 16.1 s | Bas [1]: 0% | Eos [1]: 1.2% | Hb [1]: 13.4 g/dL | Ht [1]: 41% | Lym [1]: 82.8% | MCH [1]: 21.5 pg | MCHC [1]: 32.7% | MCV [1]: 65.6 fL | Mono [1]: 5.8% | PT [1]: 11.3 s | Plat [1]: 117.3 x10_4/uL | RBC [1]: 625 x10_4/ul | Ret [1]: 7.6% | WBC [1]: 119.1 x10_2/uL | KIDNEY_L [1]: 1.1 g | KIDNEY_R [1]: 1.1 g | KIDNEY_TOTAL [1]: 2.2 g | LIVER [1]: 11.9 g | ALT [1]: 40.4 IU/L | AST [1]: 64.8 IU/L | BUN [1]: 17.6 mg/dL | CRE [1]: 0.5 mg/dL | Ca [1]: 11.3 mg/dL | DBIL [1]: 0.016 mg/dL | GLC [1]: 197.6 mg/dL | IP [1]: 8.9 mg/dL | K [1]: 4.8 meq/L | LDH [1]: 86.2 IU/L | Na [1]: 139 meq/L | PL [1]: 142.4 mg/dL | RALB [1]: 3.8 g/dL | TBIL [1]: 0.4 mg/dL | TC [1]: 70.6 mg/dL | TP [1]: 5.7 g/dL | gamma-GTP [1]: 1.2 IU/L | TERMINAL_BW [2]: 274 g | TERMINAL_BW [3]: 333.4 g | TERMINAL_BW [4]: 402.1 g | APTT [2]: 16.6 s | Bas [2]: 0% | Eos [2]: 0.8% | Hb [2]: 13.8 g/dL | Ht [2]: 41.7% | Lym [2]: 83% | MCH [2]: 21.1 pg | MCHC [2]: 33.1% | MCV [2]: 63.9 fL | Mono [2]: 4% | Neu [2]: 12.4% | Plat [2]: 113.7 x10_4/uL | RBC [2]: 653.4 x10_4/ul | Ret [2]: 6.1% | WBC [2]: 144.9 x10_2/uL | APTT [3]: 16.9 s | Bas [3]: 0% | Eos [3]: 1% | Hb [3]: 14.3 g/dL | Ht [3]: 43.1% | Lym [3]: 80.8% | MCH [3]: 20.5 pg | MCHC [3]: 33.1% | MCV [3]: 62.1 fL | Mono [3]: 6% | Neu [3]: 12.4% | PT [3]: 11.4 s | Plat [3]: 112.4 x10_4/uL | RBC [3]: 694.8 x10_4/ul | Ret [3]: 4.1% | WBC [3]: 122.3 x10_2/uL | APTT [4]: 16.7 s | Bas [4]: 0% | Eos [4]: 1% | Hb [4]: 14.5 g/dL | Ht [4]: 43.7% | Lym [4]: 86.8% | MCH [4]: 19 pg | MCHC [4]: 33.1% | MCV [4]: 57.4 fL | Mono [4]: 4.4% | Neu [4]: 7.8% | PT [4]: 11.9 s | RBC [4]: 761.8 x10_4/ul | Ret [4]: 2.5% | WBC [4]: 154.2 x10_2/uL | KIDNEY_L [2]: 1.1 g | KIDNEY_R [2]: 1.1 g | KIDNEY_TOTAL [2]: 2.3 g | KIDNEY_L [3]: 1.3 g | KIDNEY_R [3]: 1.3 g | KIDNEY_TOTAL [3]: 2.6 g | KIDNEY_L [4]: 1.4 g | KIDNEY_R [4]: 1.4 g | KIDNEY_TOTAL [4]: 2.9 g | LIVER [2]: 13 g | LIVER [3]: 15.7 g | LIVER [4]: 17 g | ALT [2]: 37.8 IU/L | AST [2]: 62 IU/L | BUN [2]: 18.8 mg/dL | CRE [2]: 0.6 mg/dL | DBIL [2]: 0.002 mg/dL | GLC [2]: 198 mg/dL | IP [2]: 8.1 mg/dL | K [2]: 4.9 meq/L | LDH [2]: 72.4 IU/L | Na [2]: 141.4 meq/L | PL [2]: 132.2 mg/dL | RALB [2]: 3.8 g/dL | TBIL [2]: 0.3 mg/dL | TC [2]: 65.2 mg/dL | TG [2]: 79.8 mg/dL | TP [2]: 5.8 g/dL | gamma-GTP [2]: 1.2 IU/L | ALP [3]: 916.4 IU/L | ALT [3]: 32.6 IU/L | AST [3]: 60.2 IU/L | BUN [3]: 17.8 mg/dL | CRE [3]: 0.5 mg/dL | DBIL [3]: 0 mg/dL | GLC [3]: 202.6 mg/dL | IP [3]: 8.1 mg/dL | K [3]: 4.5 meq/L | LDH [3]: 76.8 IU/L | Na [3]: 139.4 meq/L | PL [3]: 169.6 mg/dL | RALB [3]: 3.9 g/dL | TBIL [3]: 0.3 mg/dL | TC [3]: 85.4 mg/dL | TG [3]: 152 mg/dL | TP [3]: 6 g/dL | gamma-GTP [3]: 1.2 IU/L | ALP [4]: 633 IU/L | ALT [4]: 31.4 IU/L | AST [4]: 58 IU/L | BUN [4]: 20.4 mg/dL | CRE [4]: 0.6 mg/dL | DBIL [4]: 0.026 mg/dL | GLC [4]: 213.6 mg/dL | IP [4]: 7.7 mg/dL | K [4]: 4.3 meq/L | LDH [4]: 110.2 IU/L | Na [4]: 139.8 meq/L | PL [4]: 150 mg/dL | RALB [4]: 3.9 g/dL | TBIL [4]: 0.3 mg/dL | TC [4]: 69.2 mg/dL | TG [4]: 142.4 mg/dL | TP [4]: 6.1 g/dL | gamma-GTP [4]: 0.6 IU/L | TERMINAL_BW [5]: 236.5 g | APTT [5]: 16.5 s | Bas [5]: 0% | Eos [5]: 1% | Hb [5]: 13.6 g/dL | Ht [5]: 41.2% | Lym [5]: 79.6% | MCH [5]: 21.6 pg | MCHC [5]: 33.1% | MCV [5]: 65.3 fL | Mono [5]: 8.4% | Neu [5]: 11.4% | PT [5]: 11.2 s | Plat [5]: 120 x10_4/uL | RBC [5]: 632.2 x10_4/ul | Ret [5]: 7.1% | WBC [5]: 121.4 x10_2/uL | KIDNEY_L [5]: 0.9 g | KIDNEY_R [5]: 1 g | KIDNEY_TOTAL [5]: 1.9 g | LIVER [5]: 11.7 g | ALP [5]: 857.2 IU/L | ALT [5]: 40.4 IU/L | AST [5]: 67 IU/L | BUN [5]: 21.2 mg/dL | CRE [5]: 0.5 mg/dL | Ca [5]: 11.4 mg/dL | DBIL [5]: 0.01 mg/dL | GLC [5]: 193.6 mg/dL | IP [5]: 8.4 mg/dL | K [5]: 5 meq/L | LDH [5]: 116.8 IU/L | Na [5]: 138.4 meq/L | PL [5]: 150.6 mg/dL | RALB [5]: 4.2 g/dL | TBIL [5]: 0.3 mg/dL | TC [5]: 81 mg/dL | TP [5]: 6.1 g/dL | gamma-GTP [5]: 1.4 IU/L | TERMINAL_BW [6]: 261.5 g | TERMINAL_BW [7]: 305.1 g | TERMINAL_BW [8]: 346.2 g | APTT [6]: 15.6 s | Bas [6]: 0% | Eos [6]: 0.6% | Hb [6]: 13.8 g/dL | Ht [6]: 41.4% | Lym [6]: 84% | MCH [6]: 20.7 pg | MCHC [6]: 33.2% | MCV [6]: 62.4 fL | Mono [6]: 4.8% | Plat [6]: 134.3 x10_4/uL | RBC [6]: 664.8 x10_4/ul | Ret [6]: 4.9% | WBC [6]: 139.3 x10_2/uL | APTT [7]: 16.9 s | Bas [7]: 0% | Eos [7]: 1.2% | Hb [7]: 14.2 g/dL | Ht [7]: 42.9% | Lym [7]: 77% | MCH [7]: 19.9 pg | MCHC [7]: 33.2% | MCV [7]: 60 fL | Mono [7]: 7.6% | Neu [7]: 14.4% | PT [7]: 11.6 s | RBC [7]: 717 x10_4/ul | Ret [7]: 3.5% | WBC [7]: 93.7 x10_2/uL | APTT [8]: 15.9 s | Bas [8]: 0% | Eos [8]: 1.2% | Hb [8]: 14.8 g/dL | Ht [8]: 44.8% | Lym [8]: 83.4% | MCH [8]: 18.8 pg | MCHC [8]: 33.1% | MCV [8]: 56.6 fL | Mono [8]: 5.4% | PT [8]: 11.7 s | RBC [8]: 790.8 x10_4/ul | Ret [8]: 2.4% | WBC [8]: 131.2 x10_2/uL | KIDNEY_L [6]: 1.1 g | KIDNEY_R [6]: 1.2 g | KIDNEY_TOTAL [6]: 2.3 g | KIDNEY_L [7]: 1.2 g | KIDNEY_R [7]: 1.3 g | KIDNEY_TOTAL [7]: 2.5 g | KIDNEY_L [8]: 1.4 g | KIDNEY_R [8]: 1.4 g | KIDNEY_TOTAL [8]: 2.8 g | LIVER [6]: 12.3 g | LIVER [7]: 13.8 g | LIVER [8]: 13.8 g | ALT [6]: 40.8 IU/L | AST [6]: 67.6 IU/L | BUN [6]: 20 mg/dL | CRE [6]: 0.5 mg/dL | DBIL [6]: 0.002 mg/dL | GLC [6]: 203.8 mg/dL | IP [6]: 8.2 mg/dL | K [6]: 5.1 meq/L | LDH [6]: 77 IU/L | Na [6]: 139.2 meq/L | PL [6]: 144.2 mg/dL | RALB [6]: 4 g/dL | TBIL [6]: 0.3 mg/dL | TC [6]: 74.6 mg/dL | TG [6]: 83.6 mg/dL | TP [6]: 6 g/dL | gamma-GTP [6]: 1.8 IU/L | ALP [7]: 862.6 IU/L | ALT [7]: 32.8 IU/L | AST [7]: 61.2 IU/L | BUN [7]: 22.2 mg/dL | CRE [7]: 0.5 mg/dL | DBIL [7]: 0 mg/dL | GLC [7]: 197.6 mg/dL | IP [7]: 7.8 mg/dL | K [7]: 4.8 meq/L | LDH [7]: 85 IU/L | Na [7]: 138.2 meq/L | PL [7]: 151.6 mg/dL | RALB [7]: 4.1 g/dL | TBIL [7]: 0.3 mg/dL | TC [7]: 72.6 mg/dL | TP [7]: 6.1 g/dL | gamma-GTP [7]: 0.8 IU/L | ALP [8]: 701.4 IU/L | ALT [8]: 36.6 IU/L | AST [8]: 65.8 IU/L | BUN [8]: 22.6 mg/dL | CRE [8]: 0.5 mg/dL | DBIL [8]: 0.02 mg/dL | GLC [8]: 194 mg/dL | IP [8]: 7.5 mg/dL | K [8]: 4.9 meq/L | LDH [8]: 116.8 IU/L | Na [8]: 137.2 meq/L | PL [8]: 148.4 mg/dL | RALB [8]: 4.1 g/dL | TBIL [8]: 0.3 mg/dL | TC [8]: 72.8 mg/dL | TG [8]: 114.6 mg/dL | TP [8]: 6.2 g/dL | gamma-GTP [8]: 0.8 IU/L | TERMINAL_BW [9]: 239.8 g | APTT [9]: 16.2 s | Bas [9]: 0%
